One block for each molecule: values may come before it. The source made the active and inactive calls. The calls are words filed in the database; no cut-off is given here.
Legend:
[1] = Toxicity in BALB/c mouse assessed as change in body weight at 20 mg/kg, iv measured once every two days for 7 days; format: organism-based; conditions: in vivo, 168 h, time 7 day
[2] = system: A-375; experiment: Antitumor activity against human A-375 cells implanted in BALB/c mouse assessed as suppression of tumor growth at 20 mg/kg, ip measured once every two days for 14 days; format: functional, organism-based; conditions: time 14.0 day
[3] = system: A-375; experiment: Antitumor activity against human A-375 cells implanted in BALB/c mouse assessed as reduction in tumor weight at 20 mg/kg, ip measured once every two days for 14 days; format: functional, organism-based; conditions: time 14.0 day
[4] = system: A-375; experiment: Antitumor activity against human A-375 cells implanted in BALB/c mouse assessed as shrinkage of tumor tissue at 20 mg/kg, ip measured once every two days for 14 days; format: functional, organism-based; conditions: time 14.0 day
[5] = system: A-375; experiment: Antiproliferative activity against human A-375 cells assessed as inhibition of cell viability incubated for 72 hrs by MTT assay; format: functional, cell-based; conditions: A-375, 72 h
[6] = system: A549; experiment: Antiproliferative activity against human A549 cells assessed as inhibition of cell viability incubated for 72 hrs by MTT assay; format: functional, cell-based; conditions: A549, 72 h
[7] = system: MCF7; experiment: Antiproliferative activity against human MCF7 cells assessed as inhibition of cell viability incubated for 72 hrs by MTT assay; format: functional, cell-based; conditions: MCF7, 72 h
[8] = system: MDA-MB-231; experiment: Antiproliferative activity against human MDA-MB-231 cells assessed as inhibition of cell viability incubated for 72 hrs by MTT assay; format: functional, cell-based; conditions: MDA-MB-231, 72 h
[9] = Apparent permeability across apical to basolateral side in human Caco-2 cells at 2 uM measured after 2 hrs by LC-MS/MS analysis; format: ADME, cell-based
[10] = Apparent permeability across basolateral to apical side in human Caco-2 cells at 2 uM measured after 2 hrs by LC-MS/MS analysis; format: ADME, cell-based
[11] = Efflux ratio of apparent permeability from basolateral to apical side over apical to basolateral side in human Caco2 cells by LC-MS/MS analysis; format: ADME, cell-based; conditions: Caco-2
[12] = system: A-375; experiment: Induction of cell cycle arrest in human A-375 cells assessed as accumulation at G1 phase at 10 mM incubated for 24 hrs by PI staining based flow cytometry analysis (reference value: 68.07 %); format: functional
[13] = system: A-375; experiment: Induction of cell cycle arrest in human A-375 cells assessed as accumulation at S phase at 10 mM incubated for 24 hrs by PI staining based flow cytometry analysis (reference value: 24.01 %); format: functional
[14] = system: A-375; experiment: Induction of cell cycle arrest in human A-375 cells assessed as accumulation at G2 phase at 10 mM incubated for 24 hrs by PI staining based flow cytometry analysis (reference value: 7.92 %); format: functional
[15] = system: A-375; experiment: Inhibition of glycolysis in human A-375 cells assessed as reduction in extracellular acidification rate at 5 mM measured after 4 hrs; format: functional, cell-based
[16] = system: A-375; experiment: Antitumor activity against human A-375 cells xenografted in nude mouse assessed as tumor inhibition ratio at 80 mg/kg, ip measured once every two days for 14 days; format: functional; conditions: A-375, 336 h, time 14 day, read-out: TGI
[17] = system: A-375; experiment: Effect on mitochondrial bio-energestics in human A-375 cells assessed as increase in OCR/ECRA ratio at 5 mM measured after 4 hrs; format: functional, cell-based
[18] = Cytotoxicity against HEK293T cells assessed as cell growth inhibition measured after 72 hrs by MTT assay; format: toxicity, cell-based, HEK-293T; conditions: human
[19] = Cytotoxicity against human L02 cells assessed as cell growth inhibition measured after 72 hrs by MTT assay; format: toxicity, cell-based
[20] = Cytotoxicity against human HaCaT cells assessed as cell growth inhibition measured after 72 hrs by MTT assay; format: toxicity, cell-based
[21] = Cytotoxicity against HUVEC assessed as cell growth inhibition measured after 72 hrs by MTT assay; format: toxicity, cell-based; conditions: human
[22] = system: A-375; experiment: Induction of cell cycle arrest in human A-375 cells assessed as accumulation at G1 phase at 10 uM incubated for 24 hrs by PI staining based flow cytometry analysis (reference value: 68.07 %); format: functional
[23] = system: A-375; experiment: Induction of cell cycle arrest in human A-375 cells assessed as accumulation at S phase at 10 uM incubated for 24 hrs by PI staining based flow cytometry analysis (reference value: 24.01 %); format: functional
[24] = system: A-375; experiment: Induction of cell cycle arrest in human A-375 cells assessed as accumulation at G2 phase at 10 uM incubated for 24 hrs by PI staining based flow cytometry analysis (reference value: 7.92 %); format: functional
[25] = Toxicity in BALB/c mouse assessed as change in body weight at 70 mg/kg, iv measured once every two days for 7 days; format: organism-based; conditions: in vivo, 168 h, time 7 day
[26] = system: A-375; experiment: Antitumor activity against human A-375 cells implanted in BALB/c mouse assessed as tumor growth inhibition at 70 mg/kg, ip measured once every two days for 14 days; format: functional, organism-based; conditions: time 14.0 day
[27] = system: A-375; experiment: Antitumor activity against human A-375 cells implanted in BALB/c mouse assessed as reduction in tumor weight at 70 mg/kg, ip measured once every two days for 14 days; format: functional, organism-based; conditions: time 14.0 day
[28] = system: A-375; experiment: Antitumor activity against human A-375 cells implanted in BALB/c mouse assessed as shrinkage of tumor tissue at 70 mg/kg, ip measured once every two days for 14 days; format: functional, organism-based; conditions: time 14.0 day

SMILES: CCCS(=O)(=O)Nc1ccc(F)c(C(=O)c2c[nH]c3ncc(-c4ccc(Cl)cc4)cc23)c1F [VEMURAFENIB]
Activity [1]: Non-Toxic
Activity [2]: Active
Activity [3]: Active
Activity [4]: Active

SMILES: CN(C)/N=N/c1[nH]cnc1C(N)=O [DACARBAZINE]
Activity [25]: Toxic
Activity [26]: Active
Activity [27]: Active
Activity [28]: Active

SMILES: O=C(CCCc1ccccc1)NCC(CNC(=O)CCCc1ccccc1)(CNC(=O)CCCc1ccccc1)NC(=O)CCCC[P+](c1ccccc1)(c1ccccc1)c1ccccc1
IC50 [5]: 232 µM
IC50 [6]: 2.15 µM
IC50 [7]: 2.02 µM
IC50 [8]: 3.51 µM

SMILES: O=C(CCCc1ccccc1)NCC(CNC(=O)CCCc1ccccc1)(CNC(=O)CCCc1ccccc1)NC(=O)CCCCCCCCCCC[P+](c1ccccc1)(c1ccccc1)c1ccccc1
IC50 [5]: 0.36 µM
IC50 [6]: 0.57 µM
IC50 [7]: 0.44 µM
IC50 [8]: 0.24 µM

SMILES: O=C(CCCCC[P+](c1ccccc1)(c1ccccc1)c1ccccc1)NC(COC(=O)CCCc1ccccc1)(COC(=O)CCCc1ccccc1)COC(=O)CCCc1ccccc1
IC50 [5]: 4.66 µM
IC50 [6]: 1.08 µM
IC50 [7]: 0.91 µM
IC50 [8]: 2.68 µM

SMILES: CN(C)c1ccc([P+](CCCCCCCCCC(=O)O)(c2ccc(N(C)C)cc2)c2ccc(N(C)C)cc2)cc1
IC50 [5]: 1.25 µM
IC50 [6]: 1.87 µM
IC50 [7]: 1.19 µM
IC50 [8]: 1.94 µM

SMILES: O=C(O)CCCCCCCCC[P+](c1ccccc1)(c1ccccc1)c1ccccc1
IC50 [5]: > 20 µM
IC50 [6]: > 20 µM
IC50 [7]: > 20 µM
IC50 [8]: > 20 µM

Second part, led by results:

IC50 [5]: 8940 µM
IC50 [6]: 9750 µM
IC50 [7]: 10700 µM
IC50 [8]: 11700 µM
Papp A→B at 2 h, 2 µM [9]: < 0.48 ×10⁻⁶ cm/s
Papp B→A at 2 h, 2 µM [10]: 0.74 ×10⁻⁶ cm/s
efflux ratio [11]: > 1.54
SMILES: O=C(O)CCCc1ccccc1
Activity [12]: 87.33%
Activity [13]: 7.4%
Activity [14]: 5.38%
inhibition [15]: Active
inhibition in vivo at 80 mg/kg [16]: 10%
Activity [17]: Active

IC50 [5]: 1.98 µM
IC50 [6]: 2.11 µM
IC50 [7]: 1.91 µM
IC50 [8]: 2.19 µM
SMILES: O=C(CCCc1ccccc1)NCC(CNC(=O)CCCc1ccccc1)(CNC(=O)CCCc1ccccc1)NC(=O)CCCCCCCCC[P+](c1ccc(C(F)(F)F)cc1)(c1ccc(C(F)(F)F)cc1)c1ccc(C(F)(F)F)cc1
IC50 at 72 h [18]: > 20 µM
IC50 at 72 h [19]: > 20 µM
IC50 at 72 h [20]: > 20 µM
IC50 at 72 h [21]: > 20 µM

IC50 [5]: > 20 µM
IC50 [6]: > 20 µM
IC50 [7]: > 20 µM
IC50 [8]: > 20 µM
SMILES: O=C(O)CCCCCCCCC[P+](c1ccc(C(F)(F)F)cc1)(c1ccc(C(F)(F)F)cc1)c1ccc(C(F)(F)F)cc1.[Br-]
Activity [22]: 68.44%
Activity [23]: 19.88%
Activity [24]: 11.68%

IC50 [5]: 0.66 µM
IC50 [6]: 0.97 µM
IC50 [7]: 0.79 µM
IC50 [8]: 0.57 µM
SMILES: COc1cccc([P+](CCCCCCCCCC(=O)NC(CNC(=O)CCCc2ccccc2)(CNC(=O)CCCc2ccccc2)CNC(=O)CCCc2ccccc2)(c2cccc(OC)c2)c2cccc(OC)c2)c1

IC50 [5]: > 20 µM
IC50 [6]: > 20 µM
IC50 [7]: > 20 µM
IC50 [8]: > 20 µM
SMILES: O=C(O)CC[P+](c1ccccc1)(c1ccccc1)c1ccccc1

IC50 [5]: > 20 µM
IC50 [6]: > 20 µM
IC50 [7]: > 20 µM
IC50 [8]: > 20 µM
SMILES: Cc1ccc([P+](CCCCCCCCCC(=O)O)(c2ccc(C)cc2)c2ccc(C)cc2)cc1

IC50 [5]: 1.19 µM
IC50 [6]: 1.42 µM
IC50 [7]: 1.31 µM
IC50 [8]: 0.59 µM
SMILES: O=C(CCCc1ccccc1)NCC(CNC(=O)CCCc1ccccc1)(CNC(=O)CCCc1ccccc1)NC(=O)CCCCCCC[P+](c1ccccc1)(c1ccccc1)c1ccccc1

IC50 [5]: > 20 µM
IC50 [6]: > 20 µM
IC50 [7]: > 20 µM
IC50 [8]: > 20 µM
SMILES: O=C(O)CCCC[P+](c1ccccc1)(c1ccccc1)c1ccccc1

IC50 [5]: 0.33 µM
IC50 [6]: 0.42 µM
IC50 [7]: 0.4 µM
IC50 [8]: 0.47 µM
SMILES: COc1cccc2c1C(=O)c1c(O)c3c(c(O)c1C2=O)C[C@@](O)(C(=O)CO)C[C@@H]3O[C@H]1C[C@H](N)[C@H](O)[C@H](C)O1 [DOXORUBICIN]

Reference: ChEMBL document CHEMBL5120920, “A Mitochondria-Targeted Phenylbutyric Acid Prodrug Confers Drastically Improved Anticancer Activities” (J Med Chem, 2022)
